Laboratory results published in patent US20190038759A1 (priority 2017, published 2019).
Values after ≈ are worked out from the molar mass of the structure shown. Read-outs that look alike come from different tables or passages of the source. Non-standard residues stand in square brackets, D forms with d. Residues, ends and D or L forms follow the SMILES beside them. *: point of attachment. Propyl(3-guanidino) = N=C(N)NCCC*; Hyp = O=C(O)[C@@H]1C[C@@H](O)CN1; Isobutyl = CC(C)C*

Columns and labels:
[1] = system: Escherichia coli (ATCC 25922); experiment: In vitro antimicrobial activity (MIC), OD-based growth; conditions: ATCC25922
[2] = system: interleukin-6 (IL-6); experiment: Anti-inflammatory effect on LPS stimulated macrophages, ELISA; type: cell-based; conditions: 10 μM, LPS 150 ng/ml, J774A.1, six hours
Description: (§1) The anti-inflammatory effect of compounds on LPS stimulated macrophages, J774A.1 cells was investigated. Next, the cells were stimulated with LPS (150 ng/ml final concentration) in the presence of 10 μM of compounds. Cells that were stimulated with LPS alone and untreated cells served as controls. Cells were incubated for six hours at 37° C. and supernatants from each treatment were collected and stored at −20° C. until use. Cytokine detection of tumor necrosis factor-α (TNF-α) and interleukin-6 (IL-6) in supernatants was done using ELISA as described before following the manufacturer's instructions^24,25. Cytokine levels were expressed as percent change relative to the LPS-stimulated control, using triplicate samples for each treatment condition.

[3] = system: tumor necrosis factor-α (TNF-α); experiment: as above; type: cell-based; conditions: 10 μM, LPS 150 ng/ml, J774A.1, six hours
Description: as §1

[4] = system: Mycobacterium smegmatis; experiment: microbe, parasite or virus in culture; conditions: Mycolicibacterium smegmatis
[5] = system: Methicillin-resistant S. aureus USA400; experiment: MIC against clinical and drug-resistant isolates; type: cell-based; conditions: Staphylococcus aureus; Table 3, MRSA USA400; read-out: Minimum inhibitory concentration (MIC)
[6] = system: C. elegans; conditions: 50 μM
[7] = system: Brucella abortus; experiment: microbe, parasite or virus in culture
[8] = system: K. pneumoniae BAA-1706; experiment: MIC against clinical and drug-resistant isolates; type: cell-based; conditions: Klebsiella pneumoniae, BAA1706; Table 3, K. pneumoniae BAA-1706; read-out: Minimum inhibitory concentration (MIC)
[9] = system: P. aeruginosa PAO1; experiment: MIC against clinical and drug-resistant isolates; type: cell-based; conditions: Pseudomonas aeruginosa; Table 3, P. aeruginosa PAO1; read-out: Minimum inhibitory concentration (MIC)
[10] = system: S. epidermidis (ATCC 35984); experiment: MIC, biofilm-forming clinical isolate, broth microdilution; type: cell-based; conditions: Staphylococcus epidermidis, ATCC35984
[11] = system: A. baumannii BAA-1605; experiment: MIC against clinical and drug-resistant isolates; type: cell-based; conditions: Acinetobacter baumannii, BAA1605; Table 3, A. baumannii BAA-1605; read-out: Minimum inhibitory concentration (MIC)
[12] = system: Colistin-resistant P. aeruginosa 1109; experiment: microbe, parasite or virus in culture; type: cell-based; conditions: Table 3, colistin-resistant P. aeruginosa 1109, read-out: Minimum inhibitory concentration (MIC)
[13] = system: Salmonella enteritidis; experiment: microbe, parasite or virus in culture; conditions: Salmonella enterica
[14] = system: S. aureus (ATCC 6538) biofilm; experiment: Disruption of established biofilms, crystal violet; type: cell-based
Description: (§2) The compounds of the present disclosure were examined for their ability to disrupt bacterial biofilms using the microtiter dish biofilm formation assay. Briefly, overnight cultures of S. aureus (ATCC 6538) and S. epidermidis (ATCC 35984) were diluted 1:100 in TSB supplemented with 1% glucose. Overnight cultures of P. aeruginosa PAO1 and A. baumannii ATCC BAA-1605 were diluted 1:100 in M63 minimal medium supplemented with magnesium sulfate, glucose and casamino acids. Bacterial suspensions were incubated in 96-well plates at 37° C. for 24 hours. After removing media, wells were rinsed with PBS to remove planktonic bacteria before re-filling wells with fresh media. Compounds were added at specific concentrations and plates were incubated at 37° C. for 24 hours. After incubation, wells were washed and biofilms were stained with 0.5% (w/v) crystal violet for 30 minutes. The dye was solubilized with ethanol (95%) and the biofilm mass was quantified at OD595. Experiments were done in triplicate and repeated twice independently.

[15] = system: Mycobacterium tuberculosis H37Ra; experiment: microbe, parasite or virus in culture
[16] = system: Shigella flexneri; experiment: microbe, parasite or virus in culture
[17] = system: Vancomycin-resistant E. faecium ATCC 700221; experiment: MIC against clinical and drug-resistant isolates; type: cell-based; conditions: Enterococcus faecium, ATCC700221; Table 3, vancomycin-resistant E. faecium ATCC 700221; read-out: Minimum inhibitory concentration (MIC)
[18] = system: S. aureus (ATCC 6538); experiment: MIC, biofilm-forming clinical isolate, broth microdilution; type: cell-based; conditions: Staphylococcus aureus, ATCC6538
[19] = system: Staphylococcus aureus (ATCC 25923); experiment: In vitro antimicrobial activity (MIC), OD-based growth; conditions: ATCC25923
[20] = system: LPS-induced activation of the LAL enzyme (Limulus amoebocyte lysate); experiment: LPS binding: inhibition of LPS-induced activation of LAL enzyme; type: biochemical; conditions: at 10 (unit not given)
[21] = system: E. coli (ATCC 25922); type: cell-based; conditions: at five times MIC
[22] = system: Shigella flexneri
[23] = in vivo
[24] = system: Brucella abortus
[25] = system: Mycobacterium smegmatis
[26] = system: P. aeruginosa PAO1 biofilm; experiment: Disruption of established biofilms, crystal violet; type: cell-based; conditions: 32 μM
Description: as §2

[27] = system: A. baumannii ATCC BAA-1605 biofilm; experiment: Disruption of established biofilms, crystal violet; type: cell-based; conditions: 32 μM
Description: as §2

[28] = system: S. epidermidis ATCC 35984 biofilm; experiment: Disruption of established biofilms, crystal violet; type: cell-based; conditions: S. epidermidis mature biofilm, 64 μM
Description: as §2

[29] = system: Mycobacterium tuberculosis H37Ra
[30] = system: Salmonella enteritidis
[31] = system: intracellular pathogens in J774A.1 cells; type: cell-based; conditions: infected J774A.1 macrophages

NC[C@H]1O[C@H](O[C@H]2[C@H](O)[C@@H](O[C@H]3O[C@H](CO)[C@@H](O)[C@H](N)[C@H]3O)[C@H](N)C[C@@H]2N)[C@H](O)[C@@H](O)[C@@H]1O [kanamycin]
MIC [1]: 2 µM (≈ 0.969 µg/mL) | decrease of IL-6 levels [2]: 10%±3.30 | decrease of TNF-α levels [3]: 11.41%±4.5 | MIC [4]: 8 µM (≈ 3.88 µg/mL) | MIC [5]: 4 µM (≈ 1.94 µg/mL) | viability of C. elegans ([6]; glp-4(bn2) I, sek-1(km4), Caenorhabditis elegans, in vivo, 3 days): > 90% | MIC [7]: 4 µM (≈ 1.94 µg/mL) | MIC [8]: 256 µM (≈ 124 µg/mL) | MIC [9]: > 256 µM | MIC ([10]; Table 2, S. epidermis clinical isolate that forms biofilms, read-out: MIC): > 128 µM | MIC ([10]; Table 3, S. epidermidis ATCC 35984, read-out: Minimum inhibitory concentration (MIC)): > 256 µM | MIC [11]: 128 µM (≈ 62 µg/mL) | MIC ([12]; Pseudomonas aeruginosa): > 256 µM | MIC [13]: 16 µM (≈ 7.75 µg/mL) | disruption of biofilm mass ([14]; S. aureus mature biofilm, 8 μM): approximately 50% | MIC [15]: 2 µM (≈ 0.969 µg/mL) | MIC [16]: 2 µM (≈ 0.969 µg/mL) | MIC [17]: > 256 µM | MIC ([18]; Table 2, S. aureus clinical isolate that forms biofilms, read-out: MIC): 4 µM (≈ 1.94 µg/mL) | MIC ([18]; Table 3, S. aureus ATCC 6538, read-out: Minimum inhibitory concentration (MIC)): 2 µM (≈ 0.969 µg/mL) | MIC [19]: 2 µM (≈ 0.969 µg/mL)

CC(=O)NC[C@H]1CN(c2ccc(N3CCOCC3)c(F)c2)C(=O)O1 [linezolid]
disruption of biofilm mass ([14]; S. aureus mature biofilm, 8 μM): approximately 50%

colistin
decrease of IL-6 levels [2]: 95.04%±0.56 | decrease of TNF-α levels [3]: 97.53%±0.32 | MIC [12]: 128 µM | inhibition of the LAL enzyme [20]: 79.76%±4.6

CC[C@H](C)[C@H](NC(=O)CN)C(=O)NCC(=O)N[C@@H](C)C(=O)N[C@H](C(=O)N[C@@H](CC(C)C)C(=O)N[C@@H](CCCCN)C(=O)N[C@H](C(=O)N[C@@H](CC(C)C)C(=O)N[C@H](C(=O)N[C@H](C(=O)NCC(=O)N[C@@H](CC(C)C)C(=O)N1CCC[C@H]1C(=O)N[C@@H](C)C(=O)N[C@@H](CC(C)C)C(=O)N[C@H](C(=O)N[C@@H](CO)C(=O)N[C@@H](Cc1c[nH]c2ccccc12)C(=O)N[C@H](C(=O)N[C@@H](CCCCN)C(=O)N[C@@H](CCCNC(=N)N)C(=O)N[C@@H](CCCCN)C(=O)N[C@@H](CCCNC(=N)N)C(=O)N[C@@H](CCC(N)=O)C(=O)N[C@@H](CCC(N)=O)C(N)=O)[C@@H](C)CC)[C@@H](C)CC)[C@@H](C)O)[C@@H](C)O)C(C)C)C(C)C [melittin]
viability of C. elegans ([6]; after 3 days of treatment): no live worms | release of beta-galactosidase from E. coli [21]: substantial level of release

CC(C)CO[C@@H]1C[C@@H](C(=O)N2C[C@H](OCCCNC(=N)N)C[C@H]2C(=O)N2C[C@H](OCCCNC(=N)N)C[C@H]2C(=O)N2C[C@H](OCC(C)C)C[C@H]2C(=O)N2C[C@H](OCCCNC(=N)N)C[C@H]2C(=O)N2C[C@H](OCCCNC(=N)N)C[C@H]2C(=O)N2C[C@H](OCC(C)C)C[C@H]2C(=O)N2C[C@H](OCCCNC(=N)N)C[C@H]2C(=O)N2C[C@H](OCCCNC(=N)N)C[C@H]2C(=O)N2C[C@H](OCC(C)C)C[C@H]2C(=O)N2C[C@H](OCCCNC(=N)N)C[C@H]2C(=O)N2C[C@H](OCCCNC(=N)N)C[C@H]2C(=O)N2C[C@H](OCC(C)C)C[C@H]2C(N)=O)N(C(=O)CN)C1 [Example P14LRR] (H-G[Hyp](Isobutyl)[Hyp](Propyl(3-guanidino))[Hyp](Propyl(3-guanidino))[Hyp](Isobutyl)[Hyp](Propyl(3-guanidino))[Hyp](Propyl(3-guanidino))[Hyp](Isobutyl)[Hyp](Propyl(3-guanidino))[Hyp](Propyl(3-guanidino))[Hyp](Isobutyl)[Hyp](Propyl(3-guanidino))[Hyp](Propyl(3-guanidino))[Hyp](Isobutyl)-NH2; N-terminus assumed)
decrease of IL-6 levels [2]: 81.92%±0.78 | decrease of TNF-α levels [3]: 68.4%±5.43 | MIC [22]: 8 µM (≈ 20.9 µg/mL) | viability at 72 h, 50 µM [23]: > 90% | MIC [24]: 16 µM (≈ 41.9 µg/mL) | MIC [25]: 8 µM (≈ 20.9 µg/mL) | disruption of biofilm [26]: ineffective | reduction of biofilm mass [27]: 30% | disruption of biofilm mass ([14]; S. aureus mature (24 hour) biofilm, 1 μM): not effective | disruption of biofilm mass ([14]; S. aureus mature biofilm, 8 μM): not effective | disruption of biofilm mass [28]: approximately 50% | MIC [29]: 16 µM (≈ 41.9 µg/mL) | inhibition of the LAL enzyme [20]: 71.2%±5 | MIC [30]: 32 µM (≈ 83.8 µg/mL) | clearance of intracellular bacteria [31]: neither kanamycin nor P14LRR is capable of effectively clearing intracellular bacteria

CN[C@H](CC(C)C)C(=O)N[C@H]1C(=O)N[C@@H](CC(N)=O)C(=O)N[C@H]2C(=O)N[C@H]3C(=O)N[C@H](C(=O)N[C@H](C(=O)O)c4cc(O)cc(O)c4-c4cc3ccc4O)[C@H](O)c3ccc(c(Cl)c3)Oc3cc2cc(c3O[C@@H]2O[C@H](CO)[C@@H](O)[C@H](O)[C@H]2O[C@H]2C[C@](C)(N)[C@H](O)[C@H](C)O2)Oc2ccc(cc2Cl)[C@H]1O [vancomycin]
disruption of biofilm mass ([14]; S. aureus mature biofilm, 8 μM): approximately 50%
